# Source: patent US20120040951A1, “HETEROARYL COMPOUNDS USEFUL AS RAF KINASE INHIBITORS” (priority 2008, published 2012)
# Key:
# [1] = test system: phospho-ERK in melanoma derived WM-266-4 cells; assay: Mechanistic cellular assay for Raf kinase activity (phospho-ERK, Bio-Plex); format: cell-based; conditions: Homo sapiens, treated 1-2 hr at 37° C., serum free medium, read-out: pERK EC50
# How it was run: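 WM-266-4 melanoma cells (wild-type/V600D BRaf) grown overnight in 10% FBS RPMI, then treated 1–2 h at 37 °C in serum-free RPMI with eight 3-fold dilutions of compound (from 5 mM DMSO stock, 1000× dilution). Lysate phospho-ERK1,2 quantified by Bio-Plex bead immunoassay.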
# V599E Raf = V599E Raf (Homo sapiens, UniProt P15056, V600E); assay: Biochemical FRET assay, mutant Raf (phosphorylation of MEK); conditions: 0.125 nM V599E Raf, 100 nM biotin-MEK, 25 μM ATP, read-out: Raf (mut) inhibition
# Chain of V599E Raf (P15056 whole entry V600E): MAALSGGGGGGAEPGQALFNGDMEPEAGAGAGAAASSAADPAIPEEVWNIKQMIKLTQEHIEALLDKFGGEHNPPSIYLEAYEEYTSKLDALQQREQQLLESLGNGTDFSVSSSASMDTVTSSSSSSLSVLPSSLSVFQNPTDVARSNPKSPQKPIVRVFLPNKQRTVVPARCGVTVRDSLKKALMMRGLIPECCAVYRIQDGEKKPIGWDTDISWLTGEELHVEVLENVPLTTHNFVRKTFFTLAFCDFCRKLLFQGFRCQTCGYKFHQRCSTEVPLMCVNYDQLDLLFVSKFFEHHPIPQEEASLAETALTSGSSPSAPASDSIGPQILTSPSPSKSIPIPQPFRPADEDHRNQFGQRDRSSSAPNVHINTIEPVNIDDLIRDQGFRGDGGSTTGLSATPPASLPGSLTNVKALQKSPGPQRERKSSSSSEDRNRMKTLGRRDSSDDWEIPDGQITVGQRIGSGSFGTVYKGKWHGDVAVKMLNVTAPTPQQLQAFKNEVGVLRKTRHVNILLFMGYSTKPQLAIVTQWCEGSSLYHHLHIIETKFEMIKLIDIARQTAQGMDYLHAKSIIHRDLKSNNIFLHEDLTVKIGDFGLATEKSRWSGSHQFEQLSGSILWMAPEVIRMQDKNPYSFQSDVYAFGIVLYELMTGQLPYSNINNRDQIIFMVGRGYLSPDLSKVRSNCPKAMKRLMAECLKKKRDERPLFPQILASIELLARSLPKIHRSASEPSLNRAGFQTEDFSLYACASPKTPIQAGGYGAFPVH
# Experimental: (1) Biochemical FRET Assay […]
# Inhibitors were diluted 4-fold in 100% DMSO and added to a final concentration of 10 μM to 40 μM to a solution containing 100 nM biotin-MEK, 0.125 nM V599E Raf in 50 mM HEPES, pH 7.4, 60 mM NaCl, 3 mM MgCl2, 2 mM DTT, 0.25 mM MnCl2, 0.01% BSA, and 0.01% Tween-20 and incubated for 20 minutes at room temperature. The kinase reaction was started by the addition of 25 μM ATP to a final volume of 45 μl and allowed to progress for 60 minutes. The reaction was stopped with 15 mM EDTA and 20 nM Streptavidin-APC, 2.5 nM Polyclonal anti p-MEK1/2 (Ser217/221), 2.5 nM Eu-labeled anti-rabbit IgG were added in Lance detection buffer and 5% Superblock in PBS for a final volume of 100 μl. The detection reaction was incubated for 90 minutes at room temperature and then read on an Analyst plate reader using standard TR-FRET (time resolved fluorescence resonance energy transfer) settings for Eu and APC.
# Compounds having an activity designated as “A” provided an IC50≦100 nM; compounds having an activity designated as “B” provided an IC50 of 100-1000 nM; and compounds having an activity designated as “C” provided an IC50 of 1000-10,000 nM.
SMILES,EC50 [1],IC50 (V599E Raf)
CC(NC(=O)c1cc2c(cn1)ncn2C)c1cnc(Nc2ccc(C(F)(F)F)cc2)cn1 (stereo not drawn) [Example 35],≤ 0.1 µM,≤ 0.1 µM
C[C@@H](NC(=O)c1cc2ncn(C)c2cn1)c1ncc(C(=O)Nc2cc(C(F)(F)F)c(Cl)cn2)s1 [Example 41],0.1 to 1 µM,≤ 0.1 µM
C[C@@H](NC(=O)c1cc2c(cn1)ncn2C)c1ncc(C(=O)Nc2cc(C(F)(F)F)c(Cl)cn2)s1 [Example 42],≤ 0.1 µM,≤ 0.1 µM
CC(NC(=O)c1cc2c(cn1)ncn2C)c1ncc(C(=O)Nc2cc(C(C)(C)C)on2)s1 (stereo not drawn) [Example 43],≤ 0.1 µM,≤ 0.1 µM
CC(NC(=O)c1cncc(N)c1)c1ncc(C(=O)Nc2cc(C(F)(F)F)c(Cl)cn2)s1 (stereo not drawn) [Example 44],1 to 10 µM,≤ 0.1 µM
Cc1nc2cc(C(=O)N[C@H](C)c3ncc(C(=O)Nc4cc(C(F)(F)F)c(Cl)cn4)s3)ccc2[nH]1 [Example 49],0.1 to 1 µM,≤ 0.1 µM
Cc1cn(-c2cncc(C(=O)NC(C)c3ncc(C(=O)Nc4cc(C(F)(F)F)c(Cl)cn4)s3)c2)cn1 (stereo not drawn) [Example 51],1 to 10 µM,0.1 to 1 µM
Cc1nc2cc(C(=O)N[C@H](C)c3ncc(C(=O)Nc4cc(C(F)(F)F)c(Cl)cn4)s3)ccc2n1CCO [Example 52],1 to 10 µM,≤ 0.1 µM
C[C@@H](NC(=O)c1ccc(N)cc1)c1ncc(C(=O)Nc2cc(C(F)(F)F)c(Cl)cn2)s1 [Example 54],1 to 10 µM,0.1 to 1 µM
C[C@@H](NC(=O)c1ccc2[nH]c(CO)nc2c1)c1ncc(C(=O)Nc2cc(C(F)(F)F)c(Cl)cn2)s1 [Example 55],1 to 10 µM,≤ 0.1 µM
C[C@@H](NC(=O)c1ccc2[nH]ccc2c1)c1ncc(C(=O)Nc2cc(C(F)(F)F)c(Cl)cn2)s1 [Example 56],0.1 to 1 µM,≤ 0.1 µM
C[C@@H](NC(=O)c1ccc2[nH]nnc2c1)c1ncc(C(=O)Nc2cc(C(F)(F)F)c(Cl)cn2)s1 [Example 57],1 to 10 µM,≤ 0.1 µM
C[C@@H](NC(=O)c1ccc2ncccc2c1)c1ncc(C(=O)Nc2cc(C(F)(F)F)c(Cl)cn2)s1 [Example 58],≤ 0.1 µM,≤ 0.1 µM
C[C@@H](NC(=O)c1ccc2[nH]c(C(F)(F)F)nc2c1)c1ncc(C(=O)Nc2cc(C(F)(F)F)c(Cl)cn2)s1 [Example 62],1 to 10 µM,0.1 to 1 µM
C[C@@H](NC(=O)c1ccc2ncccc2c1)c1cc(C(=O)Nc2cnc(C(C)(C)C)nc2N)no1 [Example 65],1 to 10 µM,0.1 to 1 µM
C[C@@H](NC(=O)c1ccc2sccc2c1)c1ncc(C(=O)Nc2cc(C(F)(F)F)c(Cl)cn2)s1 [Example 67],1 to 10 µM,0.1 to 1 µM
Cc1nc2cc(C(=O)N[C@H](C)c3ncc(C(=O)Nc4cc(C(F)(F)F)c(Cl)cn4)s3)ccc2n1C [Example 68],1 to 10 µM,≤ 0.1 µM
C[C@@H](NC(=O)c1ccc2c(c1)OCCN2C)c1ncc(C(=O)Nc2cc(C(F)(F)F)c(Cl)cn2)s1 [Example 71],1 to 10 µM,≤ 0.1 µM
CC(NC(=O)c1ccc2ncccc2c1)c1cnc(Nc2ccc(C(F)(F)F)cc2)s1 (stereo not drawn) [Example 72],1 to 10 µM,≤ 0.1 µM
CC(NC(=O)c1ccc2nccnc2c1)c1cnc(Nc2ccc(C(F)(F)F)cc2)s1 (stereo not drawn) [Example 73],0.1 to 1 µM,≤ 0.1 µM
CC(NC(=O)c1ccc2ncsc2c1)c1cnc(Nc2ccc(C(F)(F)F)cc2)s1 (stereo not drawn) [Example 74],1 to 10 µM,≤ 0.1 µM
CC(NC(=O)c1ccc2nc(N)sc2c1)c1cnc(Nc2ccc(C(F)(F)F)cc2)s1 (stereo not drawn) [Example 75],0.1 to 1 µM,≤ 0.1 µM
CC(NC(=O)c1ccc2ncn(C)c2c1)c1cnc(Nc2ccc(C(F)(F)F)cc2)s1 (stereo not drawn) [Example 76],1 to 10 µM,≤ 0.1 µM

SMILES,EC50 [1],IC50 (V599E Raf)
CC(NC(=O)c1cc2nc[nH]c2cn1)c1ncc(C(=O)Nc2cc(C(F)(F)F)c(Cl)cn2)s1 (stereo not drawn) [Example 77],≤ 0.1 µM,≤ 0.1 µM
Cc1c(C(=O)NC(C)c2cnc(Nc3ccc(C(F)(F)F)cc3)s2)cnn1C (stereo not drawn) [Example 82],0.1 to 1 µM,≤ 0.1 µM
C[C@@H](NC(=O)c1cnn2ccccc12)c1ncc(C(=O)Nc2cc(C(F)(F)F)c(Cl)cn2)s1 [Example 86],0.1 to 1 µM,≤ 0.1 µM
CC(NC(=O)c1cc(N)ccn1)c1ncc(C(=O)Nc2cc(C(F)(F)F)c(Cl)cn2)s1 (stereo not drawn) [Example 87],1 to 10 µM,0.1 to 1 µM
CC(NC(=O)c1ccnc(N2CCOCC2)c1)c1ncc(C(=O)Nc2cc(C(F)(F)F)c(Cl)cn2)s1 (stereo not drawn) [Example 89],0.1 to 1 µM,0.1 to 1 µM
C[C@@H](NC(=O)c1cccc(N2CCOCC2)n1)c1ncc(C(=O)Nc2cc(C(F)(F)F)c(Cl)cn2)s1 [Example 90],0.1 to 1 µM,≤ 0.1 µM
C[C@@H](NC(=O)c1cccc(Br)n1)c1ncc(C(=O)Nc2cc(C(F)(F)F)c(Cl)cn2)s1 [Example 91],1 to 10 µM,0.1 to 1 µM
C[C@@H](NC(=O)c1cccc(N)n1)c1ncc(C(=O)Nc2cc(C(F)(F)F)c(Cl)cn2)s1 [Example 92],1 to 10 µM,≤ 0.1 µM
CC(=O)Nc1cccc(C(=O)N[C@H](C)c2ncc(C(=O)Nc3cc(C(F)(F)F)c(Cl)cn3)s2)n1 [Example 93],1 to 10 µM,0.1 to 1 µM
C[C@@H](NC(=O)c1cccc(N2CCCCC2)n1)c1ncc(C(=O)Nc2cc(C(F)(F)F)c(Cl)cn2)s1 [Example 94],1 to 10 µM,0.1 to 1 µM
C[C@@H](NC(=O)c1cscn1)c1ncc(C(=O)Nc2cc(C(F)(F)F)c(Cl)cn2)s1 [Example 95],1 to 10 µM,≤ 0.1 µM
Cc1scnc1C(=O)N[C@H](C)c1ncc(C(=O)Nc2cc(C(F)(F)F)c(Cl)cn2)s1 [Example 96],1 to 10 µM,≤ 0.1 µM
C[C@@H](NC(=O)c1csc(-c2ccncc2)n1)c1ncc(C(=O)Nc2cc(C(F)(F)F)c(Cl)cn2)s1 [Example 97],1 to 10 µM,≤ 0.1 µM
C[C@@H](NC(=O)c1csc(N)n1)c1ncc(C(=O)Nc2cc(C(F)(F)F)c(Cl)cn2)s1 [Example 98],1 to 10 µM,≤ 0.1 µM
Cc1ncsc1C(=O)N[C@H](C)c1ncc(C(=O)Nc2cc(C(F)(F)F)c(Cl)cn2)s1 [Example 99],1 to 10 µM,≤ 0.1 µM
Cc1nc(C)c(C(=O)N[C@H](C)c2ncc(C(=O)Nc3cc(C(F)(F)F)c(Cl)cn3)s2)s1 [Example 101],1 to 10 µM,≤ 0.1 µM
Cc1ncoc1C(=O)N[C@H](C)c1ncc(C(=O)Nc2cc(C(F)(F)F)c(Cl)cn2)s1 [Example 103],1 to 10 µM,≤ 0.1 µM
C[C@@H](NC(=O)c1cnc(N2CCN(C)CC2)s1)c1ncc(C(=O)Nc2cc(C(F)(F)F)c(Cl)cn2)s1 [Example 106],1 to 10 µM,≤ 0.1 µM
C[C@@H](NC(=O)c1cn[nH]c1-c1ccccc1)c1ncc(C(=O)Nc2cc(C(F)(F)F)c(Cl)cn2)s1 [Example 107],0.1 to 1 µM,≤ 0.1 µM
CC(NC(=O)c1cnn(C)c1N)c1cnc(Nc2ccc(C(F)(F)F)cc2)s1 (stereo not drawn) [Example 108],0.1 to 1 µM,≤ 0.1 µM
CC(NC(=O)c1cnn(C)c1)c1cnc(Nc2ccc(C(F)(F)F)cc2)s1 (stereo not drawn) [Example 109],1 to 10 µM,≤ 0.1 µM
Cc1nn(C)c(C)c1C(=O)N[C@H](C)c1ncc(C(=O)Nc2cc(C(F)(F)F)c(Cl)cn2)s1 [Example 110],1 to 10 µM,≤ 0.1 µM
